# Results published in US20250205204A1, “Transcription Factor Brn2 Inhibitory Compounds for Use as Therapeutics” (The University of British Columbia, priority 2021, published 2025).
# Key:
# BRN2 = biological target: T1, BRN2 (Homo sapiens, UniProt P20265); experiment: Drug Affinity Responsive Target Stability (DARTS) assay; conditions: printed in BLI binding column; 42D^ENZR lysate
# T1 sequence (P20265 1-443): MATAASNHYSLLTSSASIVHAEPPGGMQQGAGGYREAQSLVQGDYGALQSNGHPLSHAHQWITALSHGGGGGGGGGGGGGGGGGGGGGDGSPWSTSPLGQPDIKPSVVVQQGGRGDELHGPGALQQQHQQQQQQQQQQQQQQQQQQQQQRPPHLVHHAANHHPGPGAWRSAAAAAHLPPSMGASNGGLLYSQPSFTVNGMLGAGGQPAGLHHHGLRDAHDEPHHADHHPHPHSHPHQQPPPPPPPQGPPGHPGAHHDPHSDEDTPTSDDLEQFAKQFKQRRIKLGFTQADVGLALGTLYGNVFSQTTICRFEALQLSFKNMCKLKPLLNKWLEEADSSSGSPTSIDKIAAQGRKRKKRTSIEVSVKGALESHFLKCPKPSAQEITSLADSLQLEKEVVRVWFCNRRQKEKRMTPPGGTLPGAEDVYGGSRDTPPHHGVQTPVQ
# Description: Step 2: Drug Affinity Responsive Target Stability (DARTS) Assay
# This in cell assay provides a yes/no answer to direct interaction between BRN2 inhibitor and protein.
# 1) Prepare and place the following on ice: • Pronase • TNC 10× • 500 mM Tris-HCl (pH 8.0) • 500 mM NaCl, 100 mM CaCl2 • DMSO • Drug • 10 mL NP40+Protease inhibitor+Phosphatase inhibitor solution (can store in 4° C. and use for up to 4 weeks): • 2 mL NP40 5× • 8 mL ddH2O • 1 PhosphoSTOP™ pill • 200 uL protease inhibitor 50×
# 2) Remove the growth medium from the cell plate (42D^ENZR) and add 10 mL of cold PBS/vanadate.
# 3) Scrape the cells. Remove the PBS-cell solution and add in a falcon tube.
# 4) Name a new 1.5 ml Eppendorf tube and put on ice to pre-chill.
# 5) Centrifuge the cells at 1500 for 5 minutes at 4° C. Remove supernatant and re-suspend the cells in 600 uL NP40 lysis buffer by pipetting up and down. If the cell pellet is small use less volume, for example 300 μl)
# 6) Transfer the lysing cells into the pre-chilled Eppendorf tube. Incubate on ice for 20 minutes. If not continuing the DARTS on the same day, you can put the lysate in −30 and work on it later.
# Preparing Cell Lysates for DARTS:
# 7) Centrifuge the tube at maximum speed for 25-30 minutes at 4° C.
# 8) Discard the pellet (either transfer the supernatant in a new tube or just take out the pellet). […]
# 20) The samples are ready for Western blot gel running. […]
# 42D^ENZR cells = experiment: Cell proliferation, BRN2 expressing 42D cells (crystal violet); assay type: cell-based; conditions: about 72 hours
# Outline: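 42D^ENZR (~7000/well) and 16D^CRPC (~5000/well) cells plated, compound added next day from 3× media stocks. After ~72 hours, cells fixed with glutaraldehyde, stained with crystal violet, dye eluted in Sorensen solution; absorbance read at 590 nm.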
compound,measurement,setting,value
"O=C1/C(=N\Nc2nc3ccccc3s2)Cc2ccccc21 [7-62, (Z)-2-(2-(benzo[d]thiazol-2-yl)hydrazineylidene)-2,3-dihydro-1H-inden-1-one]",binding observed using DARTS assay,BRN2,Strong binding observed using DARTS assay
same,Growth Specificity,"42D^ENZR cells; 42D (express BRN2) versus 16D (no BRN2) cells, result in words",Specific to 42D
same,IC50,"42D^ENZR cells; 42D cells, proliferation, read-out: 42D IC50",1000 nM
